PubChem BioAssay AID328 (DTP/NCI, 2004)
Where “and” joins values, the source holds several entries; their conditions need not be identical. Equal values may be shown once. Toxic doses and inconclusive results are not listed.

Test system: BDF1 mice, P388 leukemia ip, median survival T/C
Experiment: NCI In Vivo Anticancer Drug Screen. Data for tumor model P388 Leukemia (intraperitoneal) in B6D2F1 (BDF1) mice
Settings: endpoint: median survival time, higher = longer survival
Method in brief: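 Antitumour effect was judged in vivo: survival in drug-treated mice, normalised to that of vehicle-dosed controls, gives the reported T/C.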

[1] = dose: 200.0 mg/kg/injection, schedule: Q01DX009 (ip), vehicle: saline with Tween-80
[2] = dose: 50.0 mg/kg/injection, schedule: Q01DX009 (ip), vehicle: saline with Tween-80
[3] = dose: 100.0 mg/kg/injection, schedule: Q01DX009 (ip), vehicle: saline with Tween-80
[4] = dose: 400.0 mg/kg/injection, schedule: Q01DX009 (ip), vehicle: saline with Tween-80
[5] = dose: 100.0 mg/kg/injection, schedule: Q04DX003 (ip), vehicle: saline with Tween-80
[6] = dose: 200.0 mg/kg/injection, schedule: Q04DX003 (ip), vehicle: saline with Tween-80
[7] = dose: 400.0 mg/kg/injection, schedule: Q04DX003 (ip), vehicle: saline with Tween-80

CC1OC(OC2C(=O)c3c(O)cc(O)cc3OC2c2ccc(O)c(O)c2)C(O)C(O)C1O (stereo not given)
T/C (dose: 25.0 mg/kg/injection, schedule: Q01DX009 (ip), vehicle: alcohol): 100 % of control
T/C (dose: 50.0 mg/kg/injection, schedule: Q01DX009 (ip), vehicle: alcohol): 96 % of control
T/C (dose: 100.0 mg/kg/injection, schedule: Q01DX009 (ip), vehicle: alcohol): 92 % of control
T/C (dose: 200.0 mg/kg/injection, schedule: Q01DX009 (ip), vehicle: alcohol): 106 % of control
T/C [1]: 115 % of control
T/C (dose: 300.0 mg/kg/injection, schedule: Q01DX009 (ip), vehicle: saline with Tween-80): 90 % of control
T/C (dose: 455.0 mg/kg/injection, schedule: Q01DX009 (ip), vehicle: saline with Tween-80): 99 % of control

OC(c1cc(C23CC4CC(CC(C4)C2)C3)nc2c(Cl)cc(Cl)cc12)C1CCCCN1 (stereo not given)
T/C (dose: 12.5 mg/kg/injection, schedule: Q01DX009 (ip), vehicle: saline with Tween-80): 88 % of control
T/C (dose: 25.0 mg/kg/injection, schedule: Q01DX009 (ip), vehicle: saline with Tween-80): 90 % of control
T/C [2]: 89 % of control and 97 % of control

COc1ccc2c(=O)c3c(=O)c4c(=O)oc5ccccc5c4oc3oc2c1
T/C [2]: 88 % of control
T/C [3]: 88 % of control
T/C [1]: 88 % of control

NC1=NC(=O)NC1(c1ccccc1)c1ccccc1
T/C [2]: 107 % of control
T/C [3]: 91 % of control
T/C [1]: 90 % of control
T/C [4]: 94 % of control

Cc1cc(C)c2nc3c(c(C(O)C4CCCCN4)c2c1)CC/C3=C\c1ccc(Cl)cc1 (stereo not given)
T/C [2]: 114 % of control
T/C [3]: 100 % of control
T/C [1]: 116 % of control

N/C(CCNO)=N\O
T/C (dose: 75.0 mg/kg/injection, schedule: Q01DX009 (ip), vehicle: saline): 96 % of control
T/C (dose: 150.0 mg/kg/injection, schedule: Q01DX009 (ip), vehicle: saline): 86 % of control
T/C (dose: 300.0 mg/kg/injection, schedule: Q01DX009 (ip), vehicle: saline): 96 % of control

OC(Cc1ccnc2ccccc12)C(Cl)(Cl)Cl (stereo not given)
T/C (dose: 50.0 mg/kg/injection, schedule: Q04DX003 (ip), vehicle: saline with Tween-80): 100 % of control
T/C [3]: 100 % of control
T/C (dose: 100.0 mg/kg/injection, schedule: Q04DX003 (ip), vehicle: Klucel (hydroxypropylcellulose) (HPC)): 105 % of control
T/C [5]: 100 % of control
T/C [1]: 100 % of control
T/C (dose: 200.0 mg/kg/injection, schedule: Q04DX003 (ip), vehicle: Klucel (hydroxypropylcellulose) (HPC)): 100 % of control
T/C [6]: 105 % of control
T/C [4]: 100 % of control
T/C (dose: 400.0 mg/kg/injection, schedule: Q04DX003 (ip), vehicle: Klucel (hydroxypropylcellulose) (HPC)): 115 % of control

C/C=C(\C)C(=O)OC1CC[N+]2([O-])CCC(COC(=O)/C(=C/C)CO)C12 (stereo not given)
T/C (dose: 30.0 mg/kg/injection, schedule: Q01DX010 (ip), vehicle: saline): 111 % of control
T/C (dose: 60.0 mg/kg/injection, schedule: Q01DX010 (ip), vehicle: saline): 111 % of control
T/C (dose: 100.0 mg/kg/injection, schedule: Q01DX010 (ip), vehicle: saline): 116 % of control

COc1cc2c(cc1OC)C(c1c(-c3c(Cl)cccc3Cl)noc1C)=NCC2
T/C [2]: 99 % of control
T/C [3]: 92 % of control
T/C [1]: 106 % of control

CCOC(=O)C(=O)C1CCCC1=O (stereo not given)
T/C [3]: 92 % of control
T/C [5]: 95 % of control
T/C [1]: 89 % of control
T/C [6]: 109 % of control
T/C [4]: 92 % of control
T/C [7]: 100 % of control

Cc1c2ccccc2c(CSC(=N)N)c2ccccc12
T/C (dose: 9.38 mg/kg/injection, schedule: Q04DX003 (ip), vehicle: saline with Tween-80): 154 % of control
T/C (dose: 12.5 mg/kg/injection, schedule: Q04DX003 (ip), vehicle: saline): 160 % of control
T/C (dose: 25.0 mg/kg/injection, schedule: Q04DX003 (ip), vehicle: saline): 180 % of control

Cc1ccc(NS(=O)(=O)c2ccccc2)cc1
T/C [5]: 100 % of control
T/C [6]: 100 % of control
T/C [7]: 110 % of control
